# Measured values published in patent US20230399361A1, “MACROCYCLIC PEPTIDES” (UNIVERSITY OF NOTRE DAME DU LAC, priority 2022, published 2023).
# “Also recorded” adds a separate entry of the source. *1 amine or outer side, *2 acyl side, *3 side chain or, on linkers, in order; H or OH if unused. Where a SMILES comes first, the peptide text is derived from it. Primed or numbered codes have the meaning given here. [ ]: non-standard residue; d: D form. The star is where a group is joined. aIle′ = Ile with backbone amide N-amino (hydrazide NNH2), CC[C@H](C)[C@@H](C(=O)[*:2])N(N)[*:1]; aVal = Val with backbone amide N-amino (hydrazide NNH2), CC(C)[C@@H](C(=O)[*:2])N(N)[*:1]; X2 = NN([C@@H](Cc1ccc(O)cc1)C(=O)[*:2])[*:1]; X1 = CC[C@H](C)[C@@H](C(=O)[*:2])N(N)[*:1]; N(NH2)LysNH2 = NCCCC[C@@H](C(N)=O)N(N)*; X3 = CC(C)[C@@H](C(=O)[*:2])N(N)[*:1]
# Columns and labels:
# [1] = target: T1, tauP301L (Homo sapiens, UniProt P10636, P618L); assay: ThT fluorescence aggregation assay of recombinant tauP301L; format: biochemical; conditions: 20 μM NAP (2-fold molar excess), 10 μM tauP301L, heparin, 48 h
# T1 construct: we expressed and purified full-length tau featuring a P301L mutation; His6 (N); made in house; host or cells: E. coli BL21 (DE3)
# T1 sequence (P10636 1-383 isoform P10636-6 P243L): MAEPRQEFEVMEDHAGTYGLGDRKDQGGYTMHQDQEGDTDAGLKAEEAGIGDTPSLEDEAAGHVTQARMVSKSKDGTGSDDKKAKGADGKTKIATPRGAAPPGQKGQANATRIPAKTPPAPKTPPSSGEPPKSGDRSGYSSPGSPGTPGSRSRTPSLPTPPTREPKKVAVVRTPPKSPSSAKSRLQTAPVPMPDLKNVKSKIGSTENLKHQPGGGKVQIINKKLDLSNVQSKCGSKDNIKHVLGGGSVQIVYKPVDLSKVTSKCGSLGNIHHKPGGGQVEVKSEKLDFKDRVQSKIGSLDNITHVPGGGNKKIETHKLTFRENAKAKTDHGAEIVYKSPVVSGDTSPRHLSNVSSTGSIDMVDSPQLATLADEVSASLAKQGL
# Excerpt: (§1) NAP Tau Mimics Inhibit Tau Fibrilization In Vitro. We chose thioflavin T (ThT), an amyloid specific fluorescent dye that binds to β-sheet assemblies, to first evaluate the effect of NAPs on recombinant tau aggregation. For these studies, we expressed and purified full-length tau featuring a P301L mutation frequently observed in patients with frontotemporal dementia and Parkinsonism linked to chromosome 17 (FTDP-17). This missense mutation leads to local structure destabilization around the amyloid-forming region resulting in faster aggregation. Recombinant tauP301L aggregated in the presence of equimolar heparin sulfate (t1/2=6.5±0.4 h) starting with a very short 0.5 h lag phase, followed by a 24 h exponential growth phase. […] Compounds 2 and 4 are mono- and diaminated hexapeptides derived from the R2 PHF6* aggregation-prone sequence, whereas compounds 5, 6, 12, and 13 are all derived from the R3 PHF6 sequence. Several other NAPs had no effect on endpoint ThT fluorescence or lacked consistent inhibition across repeated experiments. […] NaOAc buffer, as evidenced by intense ThT fluorescence after 48 h (FIG. 1B).
# Inhibition of full-length tau aggregation by mxyl-NAPs in a ThT assay. […] TauP301L ([…]) aggregated upon incubation with heparin over the course of 2 days, leading to high ThT fluorescence. […] We also synthesized linear and scrambled controls corresponding to each of the NAP inhibitors.
# ThT Fluorescence Aggregation Assay. Recombinant tauP301L (10 μM final concentration) and NAP inhibitors (20 μM final concentration) were mixed in an aggregation buffer (100 mM sodium acetate, 10 μM ThT, 10 μM heparin, 2 mM DTT, and 0.5% DMSO, pH: 7.4) in a 96-well clear bottom black plate with a final reaction volume of 200 μL. The plate was then sealed with a clear sealing film and allowed to incubate at 37° C. with continuous shaking in a Biotek Synergy H1 microplate reader. An automated method was used to carry out ThT fluorescence measurements at an excitation wavelength of 444 nm and an emission wavelength of 485 nm at an interval of every 5 min for 48 h. Experiments were carried out in technical replicates on at least 2 different days. Every experiment included control wells that lacked tauP301L, heparin, or NAPs. The average signal from control wells lacking tau was used to subtract the background fluorescence, and the average of the first and last 10 data points of tau+heparin (no inhibitor) wells, after blank subtraction, was used to normalize the data. All data plots were generated with SigmaPlot.
# [2] = Self-aggregation of peptides alone by ThT fluorescence; format: physicochemical; conditions: incubated alone in aq. NaOAc buffer, 48 h
# Excerpt: as §1
# Design and synthesis of aggregation-resistant backbone-aminated derivatives of mxyl-AD. The data above support the hypothesis that mxyl-AD mimetic macrocycle can engage in native-like hydrophobic cross-b interactions as well as edge-to-edge H-bonds along the fibril axis. We next sought to employ mxyl-AD as a template for the design of tau seeding inhibitors that could potentially cap fibril growth and block propagation. This required us to incorporate a chemical modification onto mxyl-AD that would preclude its ability to self-assemble without disrupting its capacity to adopt the conformation required to bind tau. We therefore designed two backbone N-amino peptide (NAP) derivatives of our tau mimic, mxyl-NAP1 and mxyl-NAP2 (Scheme 1). Each of these analogues features a backbone amide substitution that precludes canonical b-sheet H-bonding along one edge of the macrocycle, while leaving the other edge intact to engage the tau protein. […] Both mxyl-NAP1 and mxyl-NAP2, which feature a single backbone N-amino group within the amyloidogenic PHF6 module, were prepared on solid support starting from Fmoc-protected N-amino dipeptides.
# [3] = target: T1, tauP301L; assay: Cellular seeding assay, monomeric tauP301L co-incubated with inhibitor, HEK293 tau-RD(LM)-YFP biosensor cells; format: cell-based; conditions: 0.19 μM monomeric tauP301L + heparin co-incubated 4 days, cells 48 h
# Excerpt: Di-N-aminated Hexapeptides Block the Cellular Transmission of Tau Fibrils. […] This mode of propagation is important for the spread of NFTs, neuropil threads, and plaque-associated neurites—all of which contribute to the progression of Alzheimer's disease. To test whether NAP inhibitors are able to block the seeding activity of recombinant tauP301L, we employed HEK293 biosensor cells that stably express a tau-yellow fluorescent protein fusion [tau-RD(LM)-YFP]. When we treated these cells with preformed heparin-induced fibrils of tauP301L, we observed a large number of intracellular tau aggregates, as indicated by punctate fluorescence after 48 h.
# Mxyl-NAPs inhibit the seeding capacity of full-length tau in a biosensor cell assay. The ability to halt the prion-like spread of tau fibrils from diseased to healthy cells using designed molecules remains a considerable challenge. […] To test whether mxyl-NAPs could block this seeding activity, we treated HEK293 biosensor cells that express a tau yellow fluorescent protein fusion (tau-RD[LM]-YFP) with tauP301L incubated in the presence or absence of inhibitors. Heparin-induced fibrils of tauP301L grown in the absence of mxyl-NAPs led to strong intracellular FRET signal resulting from endogenous tau-RD(LM)-YFP aggregation. Quantitative brightness threshold-based analysis of puncta within the biosensor cells provided a positive baseline for seed-competent recombinant tau fibrils.
# Cellular Seeding Assay. The tauP301L was diluted to a final concentration of […] in an aggregation buffer containing 100 mM sodium acetate, 10 μM heparin, and 2 mM DTT, pH: 7.4. The protein was incubated in a microcentrifuge tube for 4 days at 37° C. with a shaking speed of 100 rpm. Control vials included those wherein (1) buffer was added in place of tauP301L and (2) buffer was added in place of heparin.
# For each experiment, cells were plated at a density of 15,000 cells/well in 96-well tissue culture plates.
# For seeding by monomeric tau, freshly purified recombinant tauP301L was co-incubated with heparin and NAPs for 4 days in an aggregation buffer at 37° C. (see the above section). Following incubation, the reaction mixture was diluted in the low-serum Opti-MEM medium, mixed with Lipofectamine 2000 in a 20:1 ratio (complex/Lipofectamine) and allowed to incubate for an additional 20 min at rt. A mixture of 0.19 μM tau+1.9 μM or 0.009 μM inhibitors (final concentrations) was added to the cells. Cells were incubated for an additional 48 h before taking measurements on a BioTek Cytation 5 cell imager and a microplate reader. 10×10 pictures/well were taken at 20× magnification under an FITC channel, and the punctate counting was carried out using built-in software. […] Every experiment included control wells (no tau, no heparin, and no NAP). All data plots were generated with SigmaPlot. Error bars shown are standard deviation from technical replicates.
Compound,endpoint ThT fluorescence of tauP301L [1],"self-aggregation, ThT fluorescence of peptide alone [2]",seeding capacity of tauP301L (intracellular puncta) ([3]; 0.009 μM inhibitor),seeding capacity of tauP301L (intracellular puncta) ([3]; 1.9 μM inhibitor)
"CC[C@H](C)[C@@H](C(=O)N[C@H](C(=O)N(N)[C@@H](Cc1ccc(O)cc1)C(=O)N[C@@H](CCCCN)C(N)=O)C(C)C)N(N)C(=O)[C@H](CCC(N)=O)NC(=O)[C@@H](NC(C)=O)C(C)C [Compound 12, Ac-Val-Gln-aIle-Val-aTyr-Lys-NH2] (Ac-VQ[X1]V[X2]K-NH2)",significantly reduce,no such fluorescence,less pronounced,significantly reduced seeding capacity; also recorded: sufficient to prevent seeding
"CC[C@H](C)[C@H](NC(=O)[C@H](CCC(N)=O)NC(=O)[C@@H](NC(C)=O)C(C)C)C(=O)N(N)[C@H](C(=O)N[C@@H](Cc1ccc(O)cc1)C(=O)N(N)[C@@H](CCCCN)C(N)=O)C(C)C [Compound 13, Ac-Val-Gln-Ile-aVal-Tyr-aLys-NH2] (Ac-VQI[X3]Y-{N(NH2)LysNH2})",significantly reduce,no such fluorescence,less pronounced,significantly reduced seeding capacity; also recorded: sufficient to prevent seeding
Ac-aVal-Gln-aIle-Ile-Asn-Lys-NH2 (Ac-[aVal]Q[aIle′]INK-NH2; SMILES CC[C@H](C)[C@H](NC(=O)[C@H]([C@@H](C)CC)N(N)C(=O)[C@H](CCC(N)=O)NC(=O)[C@H](C(C)C)N(N)C(C)=O)C(=O)N[C@@H](CC(N)=O)C(=O)N[C@@H](CCCCN)C(N)=O) [Compound 4],significantly reduce,no such fluorescence,far weaker anti-seeding activity,far weaker anti-seeding activity; also recorded: ineffective
